EC50 data for 23 molecules are collected here from patent publication US20230108906A1, “SUBSTITUTED BICYCLIC AND TRICYCLIC UREAS AND AMIDES, ANALOGUES THEREOF, AND METHODS USING SAME” (Arbutus Biopharma Corporation, priority 2019, published 2023).

In general, EC50 refers to the concentration that produces a half-maximal response.

The test system of one experiment is HBV rcDNA in HepDE19 cells. The experiment in a line: HepDE19 assay with bDNA quantitation of HBV rcDNA. It is filed as cell-based, hepatitis B virus (HBV). The settings on record: Hepatitis B virus, HepDE19, 168 h, inhibition of rcDNA formation in HepDE19 cells (HepG2 derived), Tet-free medium, 7 day incubation, Quantigene 2.0 bDNA readout, top concentration 25 μM; read-out: DE-19bDNA EC50. In a few lines: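 HepDE19 cells (HepG2-derived, Tet-regulated HBV) switched to Tet-free medium, then treated 7 days at 37 °C with compound, 8-point titration from 25 μM, 0.5% DMSO. rcDNA quantified by bDNA with HBV probes; EC50/EC90 via 4-parameter fit. Viability (CC50) by CellTiter-Glo ATP on 5,000 cells/well after 4 days.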
`CN(C(=O)Nc1ccc(F)c(C(F)F)c1)[C@@H]1COCc2c1c1cc(F)c(F)cc1c(=O)n2CCN` [Compound 253, (S)-1-(5-(2-Aminoethyl)-8,9-difluoro-6-oxo-1,4,5,6-tetrahydro-2H-pyrano[3,4-c]isoquinolin-1-yl)-3-(3-(difluoromethyl)-4-fluorophenyl)-1-methylurea]: the EC50 was determined as 910 nM.
The same measure, in the same setting: the same measure for `CC(C)CN(C(=O)Nc1ccc(F)c(Cl)c1)C1COCc2[nH]c(=O)c3ccccc3c21` (centres unmarked) [Compound 30, 3-(3-Chloro-4-fluorophenyl)-1-isobutyl-1-(6-oxo-1,4,5,6-tetrahydro-2H-pyrano[3,4-c]isoquinolin-1-yl)urea]: 20 nM.
On the same count and under the same terms, the same measure for `CN(C(=O)Nc1ccc(F)c(Cl)c1)C1CCCc2c1c1ccccc1c(=O)n2C` (centres unmarked) [Compound 31, 3-(3-Chloro-4-fluorophenyl)-1-methyl-1-(5-methyl-6-oxo-1,2,3,4,5,6-hexahydrophenanthridin-1-yl)urea]: 260 nM.
With `CN(C(=O)Nc1ccc(F)c(C#N)c1)[C@@H]1COCc2[nH]c(=O)c3cc(F)ccc3c21` (single isomer, unassigned) [Compound 64], the EC50 came out at 20 nM.
Consider `CN(C(=O)Nc1ccc(Cl)c(Cl)c1)[C@@H]1COCc2[nH]c(=O)c3cc(F)c(F)cc3c21` [Compound 143, (S)-3-(3,4-Dichlorophenyl)-1-(8,9-difluoro-6-oxo-1,4,5,6-tetrahydro-2H-pyrano[3,4-c]isoquinolin-1-yl)-1-methylurea], for which the EC50 is 20 nM.
`O=C(Nc1ccc(F)c(Cl)c1)N(CCCO)C1CCCc2[nH]c(=O)c3cc(F)ccc3c21` (centres unmarked) [Compound 11, 3-(3-Chloro-4-fluorophenyl)-1-(8-fluoro-6-oxo-1,2,3,4,5,6-hexahydrophenanthridin-1-yl)-1-(3-hydroxypropyl)urea]: the concentration giving a half-maximal response (EC50) was 60 nM.
For `CN(C(=O)Nc1ccc(F)c(Cl)c1)[C@H]1COCc2[nH]c(=O)c3cc(F)ccc3c21` (single isomer, unassigned) [Compound 40], the EC50 is 1000 nM.
For the molecule `CN(C(=O)Nc1ccc(F)c(Cl)c1)[C@@H]1COCc2c1c1cc(F)c(F)cc1c(=O)n2CCO` [Compound 254, (S)-3-(3-Chloro-4-fluorophenyl)-1-(8,9-difluoro-5-(2-hydroxyethyl)-6-oxo-1,4,5,6-tetrahydro-2H-pyrano[3,4-c]isoquinolin-1-yl)-1-methylurea], the EC50 is 58 nM.
Consider `CC(C)CN(C(=O)Nc1ccc(F)c(Cl)c1)C1CCCc2[nH]c(=O)c3cc(F)ccc3c21` (centres unmarked) [Compound 10, 3-(3-Chloro-4-fluorophenyl)-1-(8-fluoro-6-oxo-1,2,3,4,5,6-hexahydrophenanthridin-1-yl)-1-isobutylurea], for which the EC50 was found to be 60 nM.
Same read-out and setting: then `CN(C(=O)Nc1ccc(F)c(Cl)c1)C1CCCc2[nH]c(=O)c3c(F)c(F)ccc3c21` (centres unmarked) [Compound 28, 3-(3-Chloro-4-fluorophenyl)-1-(7,8-difluoro-6-oxo-1,2,3,4,5,6-hexahydrophenanthridin-1-yl)-1-methylurea], with 440 nM.
Regarding `Cc1cc(NC(=O)N(C)C2COCc3[nH]c(=O)c4ccc(F)cc4c32)ccc1F` (centres unmarked) [Compound 75, 3-(4-Fluoro-3-methylphenyl)-1-(9-fluoro-6-oxo-1,4,5,6-tetrahydro-2H-pyrano[3,4-c]isoquinolin-1-yl)-1-methylurea], the EC50 turned out to be 20 nM.

The experiment is the same for the next values; noted with them: inhibition of rcDNA formation in HepDE19 cells (HepG2 derived), Tet-free medium, 7 day incubation, Quantigene 2.0 bDNA readout, top concentration 25 μM; read-out: DE-19bDNA EC50.
For the molecule `CC(C)CN(C(=O)Nc1cc(F)c(F)c(F)c1)C1COCc2[nH]c(=O)c3cc(F)ccc3c21` (single isomer, unassigned) [Compound 114, 1-(8-Fluoro-6-oxo-2,4,5,6-tetrahydro-1H-pyrano[3,4-c]isoquinolin-1-yl)-1-isobutyl-3-(3,4,5-trifluorophenyl)urea], the EC50 was found to be 410 nM.
As to `CN(C(=O)Nc1ccc(F)c(Cl)c1)C1CCCc2[nH]c(=O)c3c(c21)CCCC3` (single isomer, unassigned) [Compound 47, 3-(3-Chloro-4-fluorophenyl)-1-methyl-1-(6-oxo-1,2,3,4,5,6,7,8,9,10-decahydrophenanthridin-1-yl)urea], the EC50 came to 60 nM.
Still for that read-out and setting: the same measure for `CN(C(=O)Nc1ccc(F)cc1)C1COCc2[nH]c(=O)c3cc(F)c(F)cc3c21` (single isomer, unassigned) [Compound 104, 1-(8,9-Difluoro-6-oxo-1,4,5,6-tetrahydro-2H-pyrano[3,4-c]isoquinolin-1-yl)-3-(4-fluorophenyl)-1-methylurea]: 20 nM; for `CN(C(=O)Nc1ccc(F)c(Cl)c1)C1CSCc2[nH]c(=O)c3cc(F)ccc3c21` (single isomer, unassigned) [Compound 183, 3-(3-Chloro-4-fluorophenyl)-1-(8-fluoro-6-oxo-1,4,5,6-tetrahydro-2H-thiopyrano[3,4-c]isoquinolin-1-yl)-1-methylurea]: 1100 nM; for `CN(C(=O)Nc1ccc(F)c(Cl)c1)C1CCCc2[nH]c(=O)c3cc(F)c(F)cc3c21` (centres unmarked) [Compound 38, 3-(3-Chloro-4-fluorophenyl)-1-(8,9-difluoro-6-oxo-1,2,3,4,5,6-hexahydrophenanthridin-1-yl)-1-methylurea]: 1000 nM.
Consider `CN(C(=O)Nc1ccc(F)c(Cl)c1)C1C[S+]([O-])Cc2[nH]c(=O)c3cc(F)ccc3c21` (single isomer, unassigned) [Compound 194, 3-(3-Chloro-4-fluorophenyl)-1-(8-fluoro-3-oxido-6-oxo-1,4,5,6-tetrahydro-2H-thiopyrano[3,4-c]isoquinolin-1-yl)-1-methylurea], for which the EC50 was ≥ 25000 nM.
Regarding `CN(C(=O)Nc1ccc(F)c(Cl)c1)C1COCc2nc(NCCN)c3cc(F)c(F)cc3c21` (single isomer, unassigned) [Compound 250], the EC50 turned out to be 270 nM.
For `CN(C(=O)Nc1ccc(F)c(C(F)F)c1)C1COCc2nc(NCCN)c3cc(F)c(F)cc3c21` (single isomer, unassigned) [Compound 248, 1-(6-((2-Aminoethyl)amino)-8,9-difluoro-1,4-dihydro-2H-pyrano[3,4-c]isoquinolin-1-yl)-3-(3-(difluoromethyl)-4-fluorophenyl)-1-methylurea], the EC50 stood at 3200 nM.
As for `CN(C(=O)Nc1ccc(F)c(Cl)c1)C1CCCc2[nH]c(=O)c3c(c21)CCOC3` (single isomer, unassigned) [Compound 61, 3-(3-Chloro-4-fluorophenyl)-1-methyl-1-(5-oxo-1,4,5,6,7,8,9,10-octahydro-2H-pyrano[3,4-c]quinolin-10-yl)urea], the EC50 amounted to 5100 nM.
In the case of `CC(C)CN(C(=O)Nc1ccc(F)c(F)c1)C1COCc2[nH]c(=O)c3cc(F)ccc3c21` (single isomer, unassigned) [Compound 100, 3-(3,4-Difluorophenyl)-1-(8-fluoro-6-oxo-2,4,5,6-tetrahydro-1H-pyrano[3,4-c]isoquinolin-1-yl)-1-isobutylurea], the EC50 stood at 430 nM.
On to `CN(C(=O)Nc1ccc(F)c(Cl)c1)C1COCc2[nH]c(=O)c3c(c21)CCOC3` (single isomer, unassigned) [Compound 92, 3-(3-Chloro-4-fluorophenyl)-1-methyl-1-(6-oxo-1,2,4,5,6,7,9,10-octahydrodipyrano[3,4-b:4′,3′-d]pyridin-1-yl)urea], for which the EC50 was 150 nM.
For the molecule `CC(=O)N1Cc2[nH]c(=O)c3cc(F)ccc3c2C(N(C)C(=O)Nc2ccc(F)c(C#N)c2)C1` (single isomer, unassigned) [Compound 165, 1-(3-Acetyl-8-fluoro-6-oxo-1,2,3,4,5,6-hexahydrobenzo[c][1,7]naphthyridin-1-yl)-3-(3-cyano-4-fluorophenyl)-1-methylurea], the EC50 is ≥ 25000 nM.
